Assay results as given in ChEMBL document CHEMBL1136937, “Discovery of a potent class I selective ketone histone deacetylase inhibitor with antitumor activity in vivo and optimized pharmacokinetic properties” (J Med Chem, 2009).

How the values were obtained:
[1] = (§1) Metabolic stability in human liver microsomes assessed as intrinsic clearance at 1 uM after 90 mins; type: ADME, Microsome; details: liver microsomes
[2] = Metabolic stability in dog liver microsomes assessed as intrinsic clearance at 1 uM after 90 mins; type: ADME, Canis lupus familiaris, Microsome; details: for microsomal CLint at 1 µM: liver microsomes
Histone deacetylase 1 = Histone deacetylase 1 (Homo sapiens, UniProt Q13547)
Description: Inhibition of human C-terminal FLAG-tagged HDAC1 in HEK293 cells

HeLa = assay: Antiproliferative activity against human P53-deficient HeLa cells after 72 hrs by celltiter-blue cell viability assay; type: functional
[3] = Metabolic stability in rat liver microsomes assessed as intrinsic clearance at 1 uM after 90 mins; type: ADME, Microsome
[4] = Clearance in Sprague-Dawley rat plasma at 3 mg/kg, iv and 3 mg/kg, po; type: ADME, organism-based
A549 = assay: Antiproliferative activity against human P53 expressing A549 cells after 72 hrs by celltiter-blue cell viability assay; type: functional; details: A549, 72 h
A2780 = assay: Antiproliferative activity against human A2780 cells after 72 hrs by celltiter-blue cell viability assay; type: functional; details: A2780, 72 h
HCT-116 = assay: Antiproliferative activity against human P53 expressing HCT116 cells after 72 hrs by celltiter-blue cell viability assay; type: functional; details: Homo sapiens, HCT-116, 72 h
G-401 = assay: Antiproliferative activity against human G401 cells after 72 hrs by celltiter-blue cell viability assay; type: functional; details: Homo sapiens, G-401, 72 h
Liver microsomes = assay: as §1; type: ADME, Microsome; details: microsomes, 1.5 h, 1 µM

Sequence of Histone deacetylase 1 (Q13547 whole entry): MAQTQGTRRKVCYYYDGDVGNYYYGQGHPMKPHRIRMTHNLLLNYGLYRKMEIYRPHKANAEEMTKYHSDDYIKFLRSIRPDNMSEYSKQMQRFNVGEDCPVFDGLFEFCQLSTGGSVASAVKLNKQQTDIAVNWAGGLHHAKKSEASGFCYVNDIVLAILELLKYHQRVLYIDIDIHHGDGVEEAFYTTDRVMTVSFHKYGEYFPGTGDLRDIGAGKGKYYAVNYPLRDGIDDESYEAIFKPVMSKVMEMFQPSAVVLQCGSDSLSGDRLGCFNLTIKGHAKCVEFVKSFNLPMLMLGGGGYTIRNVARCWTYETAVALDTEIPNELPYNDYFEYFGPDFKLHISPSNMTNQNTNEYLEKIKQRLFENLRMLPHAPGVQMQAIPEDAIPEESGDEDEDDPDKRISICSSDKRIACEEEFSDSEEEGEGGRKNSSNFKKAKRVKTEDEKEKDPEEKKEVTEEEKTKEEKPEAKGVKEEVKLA

microsomal CLint at 1 µM [1] [µL/min/mg] | microsomal CLint at 1 µM [2] [µL/min/mg] | IC50 (Histone deacetylase 1) [nM] | microsomal CLint at 1 µM [3] [µL/min/mg] | clearance [4] [mL/min/kg] | CL (Liver microsomes) [µL/min/mg] | CL ([2]; microsomes, 1.5 h, 1 µM) [µL/min/mg] | Structure (SMILES) | CC50 (HeLa) [nM] | CC50 (A549) [nM] | CC50 (A2780) [nM] | CC50 (HCT-116) [nM] | CC50 (G-401) [nM]
12 | 23 | 2 | 98 | – | – | – | CCC(=O)CCCCC[C@H](NC(=O)C1CCN(C)CC1)c1ncc(-c2ccc3ncccc3c2)[nH]1 | 200 | – | – | – | –
49 | 24 | 4 | 510 | – | – | – | CCC(=O)CCCCC[C@H](NC(=O)C1CCN(C)CC1)c1ncc(-c2cnc3ccccc3c2)[nH]1 | 250 | – | – | – | –
12 | 9 | 22 | 110 | 155 | – | – | CCC(=O)CCCCC[C@H](NC(=O)C1CCN(C)CC1)c1ncc(-c2ccc3ccccc3n2)[nH]1 | 480 | – | – | – | –
18 | 28 | 8 | 34 | – | – | – | CCC(=O)CCCCC[C@H](NC(=O)C1CN(C)C1)c1ncc(-c2cc3ccccc3nc2F)[nH]1 | 190 | – | – | – | –

Second part, the compound before the results:

Structure (SMILES) | microsomal CLint at 1 µM [1] [µL/min/mg] | microsomal CLint at 1 µM [2] [µL/min/mg] | IC50 (Histone deacetylase 1) [nM] | microsomal CLint at 1 µM [3] [µL/min/mg] | clearance [4] [mL/min/kg] | CL (Liver microsomes) [µL/min/mg] | CL ([2]; microsomes, 1.5 h, 1 µM) [µL/min/mg] | CC50 (HeLa) [nM] | CC50 (A549) [nM] | CC50 (A2780) [nM] | CC50 (HCT-116) [nM] | CC50 (G-401) [nM]
CCC(=O)CCCCC[C@H](NC(=O)C1CCN(C)CC1)c1ncc(-c2ccc3ccccc3c2)[nH]1 | 194 | 194 | – | > 200 | – | – | – | 210 | – | – | – | –
CCC(=O)CCCCC[C@H](NC(=O)C1CN(C)C1)c1ncc(-c2cc(OC)c3ccccc3n2)[nH]1 | 16 | 9 | 162 | 15 | 20 | – | – | 970 | – | – | – | –
Nc1ccccc1NC(=O)c1ccc(CNC(=O)OCc2cccnc2)cc1 [ENTINOSTAT] | – | – | – | – | – | – | – | 1800 | 1200 | 3000 | 700 | 1300
CC(=O)CCCCC[C@H](NC(=O)C1CCN(C)CC1)c1ncc(-c2ccc3ccccc3c2)[nH]1 | – | – | – | – | – | 194 | 194 | 300 | – | – | – | –
